{"source": "patent US10286022B2", "about": "“Medicinal composition of extract of seed of emblica officinalis and method of preparing the same” (priority 2013, dated 2019)", "tested_on": "Triton WR 1339 induced dyslipidemia in Albino rats (Sprague Dawley strain)", "experiment": "Single dosage study compared with other amla extracts, Triton WR 1339 model (Example 21)", "format": "in vivo, rat", "procedure": "Forty eight male Albino rats (Sprague Dawley strain) weighing approximate 250-300 gm were selected for the study. The animals were kept in the animal house maintained at temp 24±2° C., 65% relative humidity and 12 hr light/dark cycle. The rats were acclimatized for two weeks and during this period they had access to standard pellet diet and water ad libitum. After two weeks of acclimatization, all the rats were fasted overnight before injecting Triton WR 1339 (Tyloxapol) and administration of test extracts/standard. The animals were divided into eight groups. Following treatment was given to overnight fasted rats: • Group I: Normal control (vehicle only). • Group II: Triton WR 1339 (300 mg/kg, intraperitoneal). • Group III: Triton WR 1339 (300 mg/kg, intraperitoneal) followed by amla seed extract prepared as per example 1 (2.5 mg/kg, per oral). • Group IV: Triton WR 1339 (300 mg/kg, intraperitoneal) followed by amla extract prepared as per example 3 (2.5 mg/kg, per oral). • Group V: Triton WR 1339 (300 mg/kg, intraperitoneal) followed by amla extract prepared as per example 4 (2.5 mg/kg, per oral). • Group VI: Triton WR 1339 (300 mg/kg, intraperitoneal) followed by amla extract prepared as per example 5 (2.5 mg/kg, per oral). • Group VII: Triton WR 1339 (300 mg/kg, intraperitoneal) followed by amla extract prepared as per example 6 (2.5 mg/kg, per oral). • Group VIII: Triton WR 1339 (300 mg/kg, intraperitoneal) followed by atorvastatin (10 mg/kg, per oral).\nThe animals were deprived of food for next 24 hours but had free access to water ad libitum. After 24 hour of drug treatment 2 ml blood samples were collected from the retro orbital plexus. The blood was allowed to clot and then centrifuged at 3000 rpm for 10 min and the serum was carefully drawn and collected into separate tubes. The serum was analyzed for total cholesterol, triglycerides, high density lipoproteins (HDL), low density lipoproteins (LDL) and very low density lipoproteins (VLDL) levels using auto-analyzer.", "key": {"[1]": {"conditions": "24 h after Triton i.p. + 10 mg/kg p.o."}}, "data": [{"smiles": "CC(C)c1c(C(=O)Nc2ccccc2)c(-c2ccccc2)c(-c2ccc(F)cc2)n1CC[C@@H](O)C[C@@H](O)CC(=O)O", "note": "[Atorvastatin]", "values": [{"measurement": "HDL After", "setting": "[1]", "value": 36.66, "unit": "mg/dL"}, {"measurement": "LDL After", "setting": "[1]", "value": 43.67, "unit": "mg/dL"}, {"measurement": "TC After", "setting": "[1]", "value": 122.54, "unit": "mg/dL"}, {"measurement": "TG After", "setting": "[1]", "value": 211.06, "unit": "mg/dL"}, {"measurement": "VLDL After", "setting": "[1]", "value": 42.21, "unit": "mg/dL"}, {"measurement": "HDL Before", "setting": "baseline, 10 mg/kg p.o. group", "value": 39.51, "unit": "mg/dL"}, {"measurement": "LDL Before", "setting": "baseline, 10 mg/kg p.o. group", "value": 51.00, "unit": "mg/dL"}, {"measurement": "TC Before", "setting": "baseline, 10 mg/kg p.o. group", "value": 99.83, "unit": "mg/dL"}, {"measurement": "TG Before", "setting": "baseline, 10 mg/kg p.o. group", "value": 46.59, "unit": "mg/dL"}, {"measurement": "VLDL Before", "setting": "baseline, 10 mg/kg p.o. group", "value": 9.31, "unit": "mg/dL"}, {"measurement": "effect on cholesterol and triglyceride level", "setting": "extracts 2.5 mg/kg, atorvastatin 10 mg/kg p.o.", "value": "less effective when compared with the amla seed extract"}]}]}
